# Counter-ions that a name gives are not always drawn. Like-named read-outs stand apart in the source and are kept apart here.
# Experiments:
# CDK2/Cyclin A = CDK2/Cyclin A (Homo sapiens, UniProt P24941); assay: Inhibition of CDK2/Cyclin A Retinoblastoma Kinase Activity; format: biochemical; settings: for CDK2 % Inhibition At 0.03 μM: Table 2; for Ki: apparent Ki, CDK2/proteolyzed cyclin A, Rb fragment substrate, 25 μM ATP
# In short: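 Percent inhibition is calculated against DMSO-only wells after subtracting no-enzyme background. The enzyme is human CDK2 complexed with proteolyzed cyclin A, used at 10 nM or 19 nM on an Rb fragment with 25 μM [32/33P]ATP, at pH 7.4 and 30° C.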
# HCT-116 cell line = assay: Inhibition of cell growth, tetrazolium salt (MTT) assay; format: cell-based; settings: for HCT-116 % Inhibition at 0.25 μM: 0.25 μM compound; for IC50: Homo sapiens, HCT-116, 120 h, MTT, three to five days, read-out: HCT-116 IC50
# In short: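 Growth inhibition by MTT reduction at 540 nm (0.2 mg/mL, 4 h at 37° C, formazan dissolved in DMSO), normalized to cells given only 0.5% v/v DMSO. HCT-116 cultures in McCoy's 5A were dosed 4 h post-plating and kept three to five days at 37° C, 5% CO2.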
# [1] = molecular target: human CDK4 and genetically truncated (1-264) cyclin D3 (Homo sapiens, UniProt P11802); assay: Inhibition of CDK4/Cyclin D Retinoblastoma Kinase Activity; format: biochemical; settings: for Ki: apparent Ki, CDK4/truncated cyclin D3, Rb fragment substrate, 25 μM ATP
# In short: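 Apparent Ki values derive from fitting activity at varied inhibitor concentrations to a competitive (or competitive tight-binding) model. Kinase reactions used 5 nM CDK4/cyclin D3(1-264), Rb fragment substrate and 25 μM ATP. Incubation ran 20 min at 30 °C, extended to 60 min under linear conditions for tight binders.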
# [2] = 0.1 μM compound, HCT-116, Table 4
# Sequence of human CDK4 and genetically truncated (1-264) cyclin D3 (P11802 whole entry, the tested form may be a part): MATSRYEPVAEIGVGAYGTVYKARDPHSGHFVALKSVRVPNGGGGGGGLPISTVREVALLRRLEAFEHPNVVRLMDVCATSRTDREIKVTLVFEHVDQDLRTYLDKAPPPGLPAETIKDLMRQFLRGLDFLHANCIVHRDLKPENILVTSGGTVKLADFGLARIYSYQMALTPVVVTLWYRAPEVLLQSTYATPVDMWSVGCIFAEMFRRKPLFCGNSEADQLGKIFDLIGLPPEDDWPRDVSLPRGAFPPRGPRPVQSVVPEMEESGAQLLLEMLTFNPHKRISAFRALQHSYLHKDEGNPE
# Sequence of human CDK4 and genetically truncated (1-264) cyclin D3 (P30281 1-264 partner): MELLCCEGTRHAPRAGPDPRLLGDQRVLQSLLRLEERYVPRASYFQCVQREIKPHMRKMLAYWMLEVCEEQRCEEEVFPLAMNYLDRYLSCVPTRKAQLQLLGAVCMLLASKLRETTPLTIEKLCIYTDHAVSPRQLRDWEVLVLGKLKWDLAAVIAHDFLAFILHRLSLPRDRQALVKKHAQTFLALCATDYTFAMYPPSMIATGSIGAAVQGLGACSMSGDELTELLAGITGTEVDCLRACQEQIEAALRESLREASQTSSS
smiles,measurement,setting,value
Nc1nc(NC2CCN(C(=O)Nc3cc(C(F)(F)F)ccc3F)CC2)sc1C(=O)c1c(F)cccc1F [Example O85],CDK2 % Inhibition At 0.03 μM,CDK2/Cyclin A; 0.03 μM compound,34%
same,HCT-116 % Inhibition at 0.25 μM,"HCT-116 cell line; HCT-116, Table 2",47%
same,CDK4 % Inhibition at 0.03 μM,"[1]; 0.03 μM compound, Table 2",8%
"Nc1nc(NC2CCN(S(N)(=O)=O)CC2)sc1C(=O)c1c(F)cccc1F [Example E4, 4-[4-Amino-5-(2,6-difluoro-benzoyl)-thiazol-2-ylamino]-piperidine-1-sulfonic acid amide]",Ki,CDK2/Cyclin A,2.7 nM
same,IC50,HCT-116 cell line; first HCT-116 column (c4),570 nM
same,IC50,HCT-116 cell line; second HCT-116 column (c5),1200 nM
same,Ki,[1],14 nM
CCCCC(CC)COC(=O)N1CCC(Nc2nc(N)c(C(=O)c3c(F)cccc3F)s2)CC1 (centres unmarked) [Example Q7],CDK2 % Inhibition at 0.03 μM,"CDK2/Cyclin A; 0.03 μM compound, Table 4",−42%
same,HCT-116 % Inhibition at 0.1 μM,HCT-116 cell line; [2],5%
same,HCT-116 % Inhibition at 0.25 μM,"HCT-116 cell line; HCT-116, Table 4",39%
same,CDK4 % Inhibition at 0.03 μM,"[1]; 0.03 μM compound, Table 4",5%
CC(=O)Oc1ccccc1C(=O)N1CCC(Nc2nc(N)c(C(=O)c3c(F)cccc3F)s2)CC1 [Example R113],CDK2 % Inhibition at 0.03 μM,CDK2/Cyclin A; at 0.03 μM,44%
same,HCT-116 % Inhibition at 0.1 μM,"HCT-116 cell line; HCT-116 cells, at 0.1 μM",0%
same,HCT-116 5 Inhibition at 0.25 μM,HCT-116 cell line; HCT-116 cells,40
same,CDK4 % Inhibition at 0.03 μM,[1]; at 0.03 μM,48%
COc1cccc(CC(=O)N2CCC(Nc3nc(N)c(C(=O)c4c(F)cccc4F)s3)CC2)c1 [Example Q79],CDK2 % Inhibition at 0.03 μM,"CDK2/Cyclin A; 0.03 μM compound, Table 4",51%
same,HCT-116 % Inhibition at 0.1 μM,HCT-116 cell line; [2],5%
same,HCT-116 % Inhibition at 0.25 μM,"HCT-116 cell line; HCT-116, Table 4",33%
same,CDK4 % Inhibition at 0.03 μM,"[1]; 0.03 μM compound, Table 4",59%
COC(=O)c1cc(NC(=O)N2CCC(Nc3nc(N)c(C(=O)c4c(F)cccc4F)s3)CC2)cc(C(=O)OC)c1 [Example O59],CDK2 % Inhibition At 0.03 μM,CDK2/Cyclin A; 0.03 μM compound,28%
same,HCT-116 % Inhibition at 0.25 μM,"HCT-116 cell line; HCT-116, Table 2",32%
same,CDK4 % Inhibition at 0.03 μM,"[1]; 0.03 μM compound, Table 2",7%
Nc1nc(NC2CCN(C(=O)c3cc(C(F)(F)F)ccc3C(F)(F)F)CC2)sc1C(=O)c1c(F)cccc1F [Example R55],CDK2 % Inhibition at 0.03 μM,CDK2/Cyclin A; at 0.03 μM,11%
same,HCT-116 % Inhibition at 0.1 μM,"HCT-116 cell line; HCT-116 cells, at 0.1 μM",5%
same,HCT-116 5 Inhibition at 0.25 μM,HCT-116 cell line; HCT-116 cells,51
same,CDK4 % Inhibition at 0.03 μM,[1]; at 0.03 μM,37%
CC(C)(C)NC(=O)N1CCC(Nc2nc(N)c(C(=O)c3c(F)cccc3F)s2)CC1 [Example O27],CDK2 % Inhibition At 0.03 μM,CDK2/Cyclin A; 0.03 μM compound,38%
same,HCT-116 % Inhibition at 0.25 μM,"HCT-116 cell line; HCT-116, Table 2",24%
same,CDK4 % Inhibition at 0.03 μM,"[1]; 0.03 μM compound, Table 2",9%
Nc1nc(NC2CCN(C(=O)Nc3cccnc3)CC2)sc1C(=O)c1c(F)cccc1F [Example O86],CDK2 % Inhibition At 0.03 μM,CDK2/Cyclin A; 0.03 μM compound,32%
same,HCT-116 % Inhibition at 0.25 μM,"HCT-116 cell line; HCT-116, Table 2",47%
same,CDK4 % Inhibition at 0.03 μM,"[1]; 0.03 μM compound, Table 2",23%
"Cn1cnc(-c2ccc(S(=O)(=O)N3CCC(Nc4nc(N)c(C(=O)c5c(F)cccc5F)s4)CC3)cc2)c1 [Example F31, 1-(4-Amino-2-{1-[4-(1-methyl-1H-imidazol-4-yl)-benzenesulfonyl]-piperidin-4-ylamino}-thiazol-5-yl)-1-(2,6-difluoro-phenyl)-methanone Trifluoroacetic Acid Salt]",Ki,CDK2/Cyclin A,< 1 nM
same,IC50,HCT-116 cell line; first HCT-116 column (c4),80 nM
same,IC50,HCT-116 cell line; second HCT-116 column (c5),300 nM
same,Ki,[1],0.55 nM
Nc1nc(NC2CCN(C(=O)c3ccncc3)CC2)sc1C(=O)c1c(F)cccc1F [Example Q81],CDK2 % Inhibition at 0.03 μM,"CDK2/Cyclin A; 0.03 μM compound, Table 4",6%
same,HCT-116 % Inhibition at 0.1 μM,HCT-116 cell line; [2],4%
same,HCT-116 % Inhibition at 0.25 μM,"HCT-116 cell line; HCT-116, Table 4",37%
same,CDK4 % Inhibition at 0.03 μM,"[1]; 0.03 μM compound, Table 4",19%
"CC1CCC(NCCS(=O)(=O)N2CCC(Nc3nc(N)c(C(=O)c4c(F)cccc4F)s3)CC2)CC1 (mixture of isomers) [Example K40, (4-Amino-2-{1-[2-(4(cis/trans)-methyl-cyclohexylamino)-ethanesulfonyl]-piperidin-4-ylamino}-thiazol-5-yl)-(2,6-difluoro-phenyl)-methanone]",Ki,CDK2/Cyclin A,0.51 nM
same,IC50,HCT-116 cell line; first HCT-116 column (c4),66 nM
same,IC50,HCT-116 cell line; second HCT-116 column (c5),280 nM
same,Ki,[1],2.1 nM
"CN1CCN(c2ccc(S(=O)(=O)N3CCC(Nc4nc(N)c(C(=O)c5c(F)cccc5F)s4)CC3)cn2)CC1 [Example G5, 1-(4-Amino-2-{1-[6-(4-methyl-piperazin-1-yl)-pyridine-3-sulfonyl]-piperidin-4-ylamino}-thiazol-5-yl)-1-(2,6-difluoro-phenyl)-methanone]",Ki,CDK2/Cyclin A,1.3 nM
same,IC50,HCT-116 cell line; first HCT-116 column (c4),29 nM
same,IC50,HCT-116 cell line; second HCT-116 column (c5),> 500 nM
same,Ki,[1],1.3 nM
Nc1nc(NC2CCN(C(=O)c3ccncc3)CC2)sc1C(=O)c1c(F)cccc1F [Example C13],Ki,CDK2/Cyclin A,53 nM
same,IC50,HCT-116 cell line; first HCT-116 column (c4),2800 nM
same,IC50,HCT-116 cell line; second HCT-116 column (c5),5000 nM
same,Ki,[1],18 nM
"CN1CCN(CCc2ccc(S(=O)(=O)N3CCC(Nc4nc(N)c(C(=O)c5c(F)cccc5F)s4)CC3)cn2)CC1 [Example N4, [4-Amino-2-(1-{6-[2-(4-methyl-piperazin-1-yl)-ethyl]-pyridine-3-sulfonyl}-piperidin-4-ylamino)-thiazol-5-yl]-(2,6-difluoro-phenyl)-methanone Hydrochloride Salt.]",Ki,CDK2/Cyclin A,1.7 nM
same,IC50,HCT-116 cell line; first HCT-116 column (c4),360 nM
same,IC50,HCT-116 cell line; second HCT-116 column (c5),> 500 nM
same,Ki,[1],0.92 nM
